Data set [1] relates to AB1-HA tumor model. The note with it: CTX treatment at Day 9; cited from earlier work.
The test system of data set [2] is SW620 and LS411N cells. Nature of the data set: Sensitisation of colon carcinoma cells to FasL-induced apoptosis. Format: cell-based, human. The conditions noted are these: F5446 at sublethal dose plus FasL, 3 days. As to the method:
SW620 and LS411N cells were cultured in the presence of F5446 and FasL, either alone or in combination, for 3 days. Cells were stained with PI and Annexin V and analyzed for apoptosis.
Apoptotic cell death was calculated as the difference between the percentage of PI^+ Annexin V^+ cells in the presence of F5446, FasL, or both and the percentage of PI^+ Annexin V+ cells in the absence of F5446 or FasL.

In data set [3] the test system is CD8+ CTLs from CT26 tumor tissues. Nature of the data set: H3K9me3 ChIP and qPCR in tumor-infiltrating CD8+ CTLs of CT26 tumor bearing mice. It counts as in vivo. The conditions noted are these: CD8+ CTLs from CT26 tumors, F5446-treated mice. The protocol: CD8^+ CTLs were isolated from tumor tissues of the control and the F5446-treated groups of CT26 tumor bearing mice (from Example 13). ChIP analysis of H3K9me3 level in the promoter regions of GZMB, PRF1, FASLG and IFNG was performed. Further a qPCR analysis was performed to determine the expression levels of all four promoter regions.

For data set [4], the system named is Fas in SW620 and LS411N cells. Nature of the data set: Fas protein level on tumor cell surface by flow cytometry. It counts as cell-based, human. The note with it: 3 days, 25 and 250 nM. The protocol: SW620 and LS411N cells were cultured in the presence of F5446 for 3 days. Fas protein levels were analyzed by flow cytometry (FIG. 12A-12B).
Background: In flow cytometry, cells or beads pass a laser one at a time.

Data set [5] relates to CD3+ T cells from spleens of C57BL/6 mice. Nature of the data set: H3K9me3 ChIP and effector expression in activated CD3+ T cells. Format: cell-based. The conditions noted are these: activated mouse CD3+ T cells. The protocol: CD3^+ T cells were purified from spleens of C57BL/6 mice. The cells were stimulated in anti-CD3/CD28-coated plates for 2 days in the absence or presence of F5446 (50 nM). The resting, stimulated and treated T cells were then analyzed by ChIP (Chromatin Immunoprecipitation) with anti-H3K9me3 antibody and gene-specific PCR primers.

For data set [6], the system named is SW620 and LS411N cells. Nature of the data set: Apoptosis of human colon carcinoma cells, PI/annexin V flow cytometry. Format: cell-based. The note with it: 0.01, 0.05, 0.25 and 1 μM for 2 days. As to the method: SW620 and LS411N cells were cultured in the presence of F5446 at doses of 0.01, 0.05, 0.25, and 1 μM for 2 days. Cells were stained with propidium iodide (“PI”) and annexin V and analyzed for apoptosis by flow cytometry.
Apoptotic cell death was calculated as the difference between the percentage of PI^+ Annexin V^+ cells in the presence of F5446 and the percentage of PI^+ Annexin V^+ cells in the absence of F5446.

A short description of data set [7]: Toxicity of F5446 in mice: survival and serum liver enzyme profile. Format: in vivo. As to the method: F5446 was injected into mice at a dose of 10 mg/kg body weight every 2 days for 6 days. Mouse survival was recorded. Serum was collected from the mice and analyzed for liver enzyme profiles at the University of Georgia Veterinary Diagnostic Laboratories.
Data set [8] concerns H3K9me3 at the FAS promoter region in SW620 and LS411N cells. Nature of the data set: ChIP of H3K9me3 at the FAS promoter region in colon carcinoma cells. Format: cell-based, human. The conditions noted are these: 25 and 250 nM for 2 days. The protocol:
SW620 and LS411N cells were treated with F5446 at 25, and 250 nM for 2 days and analyzed by ChIP using H3K9me3-specific antibody. The H3K9me3 antibody-immunoprecipitated DNA was amplified by PCR with FAS promoter DNA-specific primers and normalized to input genomic DNA.

Data set [9] has as its target T1, recombinant human SUV39H1 (Homo sapiens, UniProt O43463).
T1 construct: purchased Reaction Biology Corp. (Malvern Pa.)
T1 sequence (O43463 1-412): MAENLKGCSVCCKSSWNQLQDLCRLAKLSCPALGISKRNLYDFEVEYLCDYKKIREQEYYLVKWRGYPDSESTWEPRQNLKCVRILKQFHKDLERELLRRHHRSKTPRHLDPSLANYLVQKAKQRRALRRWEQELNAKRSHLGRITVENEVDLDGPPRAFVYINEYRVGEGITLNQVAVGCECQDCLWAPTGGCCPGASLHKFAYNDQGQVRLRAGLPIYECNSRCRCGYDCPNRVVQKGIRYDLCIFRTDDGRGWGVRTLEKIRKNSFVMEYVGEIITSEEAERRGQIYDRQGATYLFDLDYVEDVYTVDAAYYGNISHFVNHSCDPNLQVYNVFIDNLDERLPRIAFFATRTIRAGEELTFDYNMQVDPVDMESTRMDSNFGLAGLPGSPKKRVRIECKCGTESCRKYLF
Put plainly: HMTase EC50 assay with recombinant human SUV39H1 (Reaction Biology Corp.). It counts as biochemical. The note with it: 10-dose, 3-fold serial dilutions; S-(methyl-3H) Adenosyl-L-Methionine; H3 peptide (N1-21); read-out: EC50 against recombinant human SUV39H1 in vitro. As to the method: F5446 was sent to Reaction Biology Corp. (Malvern Pa.) to validate its inhibitory activity and to determine its EC50 for SUV39H1. F5446 was assayed in a 10-dose EC50 mode with 3-fold serial dilutions using recombinant human SUV39H1 protein as the methyltransferase, S-(methyl-3H) Adenosyl-L-Methionine as the substrate, and H3 peptide (N1-21) as the template in the presence of indicated doses of F5446. The EC50 was calculated with Prizm Program.

For data set [10], the system named is MC38 and CT26 colon carcinoma tumors. Nature of the data set: Colon carcinoma growth in vivo, MC38 in C57BL/6 and CT26 in BALB/c mice. The conditions noted are these: F5446 10 mg/kg. The protocol: Two different tumor cells were injected into two different strains of mice. MC38 cells (1.5×10^5 cells/mouse) were injected to thirty C57BL/6 mice subcutaneously. CT26 cells (2×10^5 cells/mouse) were injected to thirty BALB/c mice subcutaneously. Twenty mice from each strain with relatively similar sizes of tumors were randomized into four groups at day 8 after tumor cell injection. The four groups of tumor-bearing mice were treated with IgG/solvent (control), […] (10 mg/kg), anti-PD-1 mAb ([…]), and […]+anti-PD-1 mAb, respectively, every two days for 14 days.

The conditions of data set [11]: background statement; cited from earlier work.
Setting [12] is: mouse serum, 10 mg/kg every 2 days for 6 days.
The mark [13] stands for this setting: MC38/C57BL/6 and CT26/BALB/c, anti-PD-1 mAb 200 mg/mouse, every two days for 14 days.

Turning to `O=P1(N(CCCl)CCCl)NCCCO1` (stereo not shown) [CTX, Cyclophosphamide], in data set [1], the cure rate is reported as 75%.
In general, EC50 refers to the midpoint of the concentration-response curve. As to `COC(=O)c1cc2c(n1S(=O)(=O)c1ccc(Cl)cc1)C(=O)C(=O)c1[nH]cc(C(=O)OCc3ccccc3)c1-2` [F5446, 1-Benzyl 7-methyl 6-(4-chlorobenzenesulfonyl)-4,5-dioxo-3H,4H,5H,6H-pyrrolo[3,2-e]indole-1,7-dicarboxylate], the “sensitivity to FasL-induced apoptosis” value in data set [2] was “significantly increased human colon carcinoma cells to FasL-induced apoptosis”. Also, the “expression levels of granzymeB, perforin, FasL and IFNγ in tumor-infiltrating CTLs (qPCR)” value in data set [3] is “significantly increased”. Also, in [3] (ChIP), the “H3K9me3 levels in the promoter regions of GZMB, PRF1, FASLG and IFNG in tumor-infiltrating CTLs” value is recorded as “decreased H3K9me3 levels”. For the same compound, the “tumor cell surface Fas expression (MFI)” value in data set [4] is “up-regulated tumor cell surface Fas expression”. Moreover, the “H3K9me3 levels in the promoter regions of GZMB, PRF1, FASLG and IFNG” value in data set [5] (F5446 50 nM, 2 days, ChIP) is given as “reduced H3K9me3 levels”. The “expression of GZMB, PRF1, FASLG and IFNG” value in data set [5] (increasing doses of F5446) is recorded as “increased expression of all four effector genes in a dose-dependent manner”. In addition, the apoptotic cell death result in data set [6] is reported as “induced human colon carcinoma cell death in a dose-dependent manner”. In addition, the survival rate in [7] (mice, 10 mg/kg body weight every 2 days for 6 days) is 100%. Further, in data set [7] (mice, 10 mg/kg every 2 days for 6 days), the “liver enzyme profile, overall finding” value is “did not cause toxic levels of liver enzymes in vivo”. In data set [7] (setting [12]), this compound registered an ALP of 60.3 U/L, an ALT of 71.3 U/L, an AST of 444.3 U/L and an Albumin of 3.3 g/dL. In addition, in data set [7] (setting [12]), the Cholesterol was found to be 119 mg/dL, the GGT is on record as less than 3 U/L, the “Total Bilirubin” value turned out to be 0.1 mg/dL and the Total protein came out at 5.7 g/dL. Also, in data set [8], the “H3K9me3 at the FAS promoter region” value is on record as “inhibits H3K9me3 at the FAS promoter region”. In addition, in [9], the EC50 was found to be 496 nM. In addition, in data set [10] (setting [13]), the “established tumor growth over time (tumor volume)” value is given as “suppressed the established tumor growth in a time-dependent manner”; the “tumor growth as measured by tumor size and tumor weight” value is “significantly reduced tumor growth”. The “expression levels of granzymeB, perforin, FasL and IFNγ in tumor tissues (qPCR)” value in [10] (tumor tissues of C57BL/6 and BALB/c mice) was “significantly increased”.
For the compound `CN1C(=O)[C@@]23C[C@]4([C@]56C[C@@]78SS[C@@](CO)(C(=O)N7[C@H]5Nc5ccccc56)N(C)C8=O)c5ccccc5N[C@@H]4N2C(=O)[C@]1(CO)SS3` [chaetocin], the toxicity in vivo result in [11] is “toxic in vivo”.
Turning to `CN1C(=O)[C@]23SS[C@@]1(C)C(=O)N2[C@H]1Nc2ccccc2[C@@]1([C@@]12c4ccccc4N[C@@H]1N1C(=O)[C@@]4(C)SS[C@]1(C(=O)N4C)[C@H]2O)[C@@H]3O` [verticillin A], the toxicity in vivo entry in [11] was “toxic in vivo”.

Source of the values: patent US10577371B2, “Small molecule histone methyltransferase SUV39H1 inhibitor and uses thereof” (Augusta University Research Institute, Inc., priority 2017, dated 2020).
